Measured values from PMC3004257, “Purine nucleoside phosphorylase from Schistosoma mansoni in complex with ribose-1-phosphate” (Journal of Synchrotron Radiation, 2010).

Columns and labels:
[1] = molecular target: T1, SmPNP (Schistosoma mansoni purine nucleoside phosphorylase) (Schistosoma mansoni, UniProt Q9BMI9); experiment: X-ray crystallography, crystal soaking; conditions: soaking aimed at ternary complex with R1P; base binding site
T1 construct: low-molecular-mass homotrimer
T1 sequence (Q9BMI9 1-287): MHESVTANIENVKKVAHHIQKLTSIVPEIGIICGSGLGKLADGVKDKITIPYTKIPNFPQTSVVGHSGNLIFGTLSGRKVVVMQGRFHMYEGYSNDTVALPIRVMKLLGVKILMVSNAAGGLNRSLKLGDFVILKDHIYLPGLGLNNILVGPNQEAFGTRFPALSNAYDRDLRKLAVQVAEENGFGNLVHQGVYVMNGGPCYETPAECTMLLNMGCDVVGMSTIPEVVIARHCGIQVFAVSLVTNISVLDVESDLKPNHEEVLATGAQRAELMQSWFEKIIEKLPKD

[2] = molecular target: T1, SmPNP (Schistosoma mansoni purine nucleoside phosphorylase); experiment: X-ray crystallography, crystal soaking, […] Å; format: binding; conditions: 5 mM R1P soak up to 48 h, 20% PEG 1500, 15 mM sodium acetate pH 4.9 or 5.0, 20% glycerol; phosphate and ribose sites of all three subunits; acetate in base site

SMILES | X-ray crystallography, crystal soaking [1] | X-ray crystallography, crystal soaking, 2.0 Å [2]
O=c1[nH]cnc2nc[nH]c12 [hypoxanthine] | by soaking were unsuccessful, SmPNP–hypoxanthine complexes being obtained instead | –
O=P(O)(O)O[C@H]1O[C@H](CO)[C@@H](O)[C@H]1O [ribose-1-phosphate] | – | we have been able to obtain the elusive binary complex of SmPNP with R1P
